Where a name gives a salt, the structure may show the parent alone.

The results in this text go back to US20210163443A1, “Febrifugine Derivatives” (BRISTOL-MYERS SQUIBB COMPANY, priority 2019, published 2021).

This test has as its target T1, human ProRS (prolyl tRNA synthetase moiety of glutamyl prolyl tRNA synthetase, EPRS) (Homo sapiens, UniProt P07814).
T1 construct: The prolyl tRNA synthetase moiety (ProRS) in the cDNA of glutamyl prolyl tRNA synthetase was subcloned; 6xHis (N, cleaved yes); made in house; host or cells: E. coli BL21 (DE3)
T1 sequence (P07814 1007-1512 limits assumed): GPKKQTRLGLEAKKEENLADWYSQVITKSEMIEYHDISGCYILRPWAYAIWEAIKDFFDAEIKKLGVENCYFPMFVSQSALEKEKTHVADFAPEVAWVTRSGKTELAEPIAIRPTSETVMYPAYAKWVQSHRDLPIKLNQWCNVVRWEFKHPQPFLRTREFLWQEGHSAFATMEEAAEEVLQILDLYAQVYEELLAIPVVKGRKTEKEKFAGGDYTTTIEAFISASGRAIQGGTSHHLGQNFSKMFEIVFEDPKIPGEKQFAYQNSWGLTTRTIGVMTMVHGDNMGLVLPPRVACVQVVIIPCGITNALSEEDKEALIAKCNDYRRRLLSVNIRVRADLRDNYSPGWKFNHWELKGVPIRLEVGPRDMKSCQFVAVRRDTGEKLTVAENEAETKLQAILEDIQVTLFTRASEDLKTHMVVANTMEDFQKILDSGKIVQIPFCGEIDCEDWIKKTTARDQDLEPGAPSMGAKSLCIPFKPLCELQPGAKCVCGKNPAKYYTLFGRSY
Put plainly: Assay for inhibitors of prolyl tRNA synthetase activity (ProRS assay, labeled proline incorporation). The following applies: human ProRS 20 nM, 10 min at 37° C.; read-out: EPRS IC50. Format: biochemical. From the text:
In order to establish the activities of the compounds highlighted above, we determined extent of inhibition of prolyl tRNA synthetase activity in dose response curves to obtain IC50 values.
The prolyl tRNA synthetase moiety (ProRS) in the cDNA of glutamyl prolyl tRNA synthetase was subcloned, tagged with a single biotin, purified and used in the assay.
Briefly, human ProRS with a 6×N-terminal His tag in pET28N with TVMV BioP was transformed in E. coli BL21 (DE3) cells, selected, overexpressed and purified using a Ni Seph 6 FF XK 16/20 column in the first stage. Ni-NTA eluates were pooled and treated with TVMV protease, and biotinylated using d-Biotin, MgCl2, ATP and the BirA enzyme. This was rerun through a Ni column as before. The eluates were further enriched and purified using membrane ultrafiltration and a SuperDex 200 XK 16/60 column, and peak fractions were confirmed by SDS-PAGE prior to protein amount determination, aliquoting and storage at −80° C. • ProRS assay was performed in 96 well plates in a final reaction volume of 20 μl, using staggered additions of Tris-Cl (pH 7.5, 60 mM), dithiothreitol (2 mM), ATP (5 mM, pH 7.0), MgCl2 6 mM), ProRS (20 nM, with pre-determined active fraction range) and bovine tRNA (20 μg). Controls and compounds, at various concentrations (10 μM to 0.5 nM), were incubated on ice with enzyme mix for 15 min followed by addition of proline (non-labeled and labeled, 3.96 and 1.04 μM (1 μCi) respectively) to initiate the reaction. Reaction was carried out for 10 min at 37° C. and terminated by addition of TCA (10%, 100 μl). Reaction mix was collected on a Whatman GF/B filter using a vacuum filtration manifold. This filter was washed 3 times with 5% TCA followed by 2 washes with ethanol, air dried, and read using a liquid scintillation counter (TopCount NXT) using MicroScint O. IC50 values were calculated and analyzed using ToolSet (4-parameter plot) and depicted herein.

Regarding “3-{(S)-2-hydroxy-3-[(2R,3S)-3-hydroxypiperidin-2-yl]propyl}-8-methyl-6-(1-methyl-1H-pyrazol-3-yl)quinazolin-4(3H)-one hydrochloride [Example 71]”, the concentration for half-maximal inhibition (IC50) was found to be 4200 nM.
The result for `Cc1cc(Cl)cc2c(=O)n(CC(=O)C[C@H]3NCCC[C@@H]3O)cnc12` [Example 1, 6-Chloro-3-{3-[(2R,3S)-3-hydroxypiperidin-2-yl]-2-oxopropyl}-8-methylquinazolin-4(3H)-one hydrochloride] reads 73 nM; that for `Cc1c(Cl)ccc2c(=O)n(CC(=O)C[C@H]3NCCC[C@@H]3O)cnc12` [Example 2, 7-Chloro-3-{3-[(2R,3S)-3-hydroxypiperidin-2-yl]-2-oxopropyl}-8-methylquinazolin-4(3H)-one hydrochloride], 15 nM; that for `COc1ccc2c(=O)n(CC(=O)C[C@H]3NCCC[C@@H]3O)cnc2c1C` [Example 4, 3-{3-[(2R,3S)-3-Hydroxypiperidin-2-yl]-2-oxopropyl}-7-methoxy-8-methylquinazolin-4(3H)-one hydrochloride], 49 nM.
To `O=C(C[C@H]1NCCC[C@@H]1O)Cn1cnc2cccc(F)c2c1=O` [Example 5, 5-Fluoro-3-{3-[(2R,3S)-3-hydroxypiperidin-2-yl]-2-oxopropyl}quinazolin-4(3H)-one hydrochloride] belongs 8 nM.
On to `CCc1cc(C)c2ncn(CC(=O)C[C@H]3NCCC[C@@H]3O)c(=O)c2c1` [Example 6, 6-Ethyl-3-(3-((2R,3S)-3-hydroxypiperidin-2-yl)-2-oxopropyl)-8-methylquinazolin-4(3H)-one hydrochloride], for which the concentration for half-maximal inhibition (IC50) worked out at 3 nM.
As for `Cc1cc(OC(F)(F)F)cc2c(=O)n(CC(=O)C[C@H]3NCCC[C@@H]3O)cnc12` [Example 7, 3-{3-[(2R,3S)-3-Hydroxypiperidin-2-yl]-2-oxopropyl}-8-methyl-6-(trifluoromethoxy)quinazolin-4(3H)-one hydrochloride], the IC50 was found to be 9 nM.
For the compound `Cc1cc(S(C)(=O)=O)cc2c(=O)n(CC(=O)C[C@H]3NCCC[C@@H]3O)cnc12` [Example 8, 3-{3-[(2R,3S)-3-Hydroxypiperidin-2-yl]-2-oxopropyl}-8-methyl-6-methylsulfonyl)quinazolin-4(3H)-one hydrochloride], the half-maximal inhibitory concentration (IC50) was determined as 9 nM.
The result for `Cc1cc(C(F)(F)F)cc2c(=O)n(CC(=O)C[C@H]3NCCC[C@@H]3O)cnc12` [Example 9, 3-{3-[(2R,3S)-3-Hydroxypiperidin-2-yl]-2-oxopropyl}-8-methyl-6-(trifluoromethyl)quinazolin-4(3H)-one hydrochloride] reads 7 nM.
The result for `Cc1cc(C(C)C)cc2c(=O)n(CC(=O)C[C@H]3NCCC[C@@H]3O)cnc12` [Example 10, 3-{3-[(2R,3S)-3-Hydroxypiperidin-2-yl]-2-oxopropyl}-6-isopropyl-8-methylquinazolin-4(3H)-one hydrochloride] reads 6 nM.
The result for `Cc1cc(C2CC2)cc2c(=O)n(CC(=O)C[C@H]3NCCC[C@@H]3O)cnc12` [Example 11, 6-Cyclopropyl-3-{3-[(2R,3S)-3-hydroxypiperidin-2-yl]-2-oxopropyl}-8-methylquinazolin-4(3H)-one hydrochloride] reads 6 nM.
In the case of `Cc1cc(C#N)cc2c(=O)n(CC(=O)C[C@H]3NCCC[C@@H]3O)cnc12` [Example 12, 3-{3-[(2R,3S)-3-Hydroxypiperidin-2-yl]-2-oxopropyl}-8-methyl-4-oxo-3,4-dihydroquinazoline-6-carbonitrile hydrochloride], the IC50 came to 17 nM.
To `CCc1cc(Br)cc2c(=O)n(CC(=O)C[C@H]3NCCC[C@@H]3O)cnc12` [Example 13, 6-Bromo-8-ethyl-3-{3-[(2R,3S)-3-hydroxypiperidin-2-yl]-2-oxopropyl}quinazolin-4(3H)-one hydrochloride] belongs 6 nM; to `CCc1cc(F)cc2c(=O)n(CC(=O)C[C@H]3NCCC[C@@H]3O)cnc12` [Example 14, 8-Ethyl-6-fluoro-3-(3-((2R,3S)-3-hydroxypiperidin-2-yl)-2-oxopropyl)quinazolin-4(3H)-one hydrochloride], 38 nM; to `O=C(C[C@H]1NCCC[C@@H]1O)Cn1cnc2cccc(-c3cccc(F)c3)c2c1=O` [Example 15, 5-(3-Fluorophenyl)-3-{3-[(2R,3S)-3-hydroxypiperidin-2-yl]-2-oxopropyl}quinazolin-4(3H)-one hydrochloride], 6 nM.
To `O=C(C[C@H]1NCCC[C@@H]1O)Cn1cnc2ccc(-c3cccc(F)c3)cc2c1=O` [Example 16, 6-(3-Fluorophenyl)-3-{3-[(2R,3S)-3-hydroxypiperidin-2-yl]-2-oxopropyl}quinazolin-4(3H)-one hydrochloride] belongs 10 nM; to `O=C(C[C@H]1NCCC[C@@H]1O)Cn1cnc2ccc(-c3cccc(Cl)c3)cc2c1=O` [Example 17, 6-(3-Chlorophenyl)-3-{3-[(2R,3S)-3-hydroxypiperidin-2-yl]-2-oxopropyl}quinazolin-4(3H)-one hydrochloride], 28 nM; to `O=C(C[C@H]1NCCC[C@@H]1O)Cn1cnc2ccc(-c3cccc(C(F)(F)F)c3)cc2c1=O` [Example 18, 3-{3-[(2R,3S)-3-Hydroxypiperidin-2-yl]-2-oxopropyl}-6-[3-(trifluoromethyl)phenyl]quinazolin-4(3H)-one hydrochloride], 40 nM.
Consider `Cc1cc(-c2cccc(F)c2)cc2c(=O)n(CC(=O)C[C@H]3NCCC[C@@H]3O)cnc12` [Example 19, 6-(3-Fluorophenyl)-3-{3-[(2R,3S)-3-hydroxypiperidin-2-yl]-2-oxopropyl}-8-methylquinazolin-4(3H)-one hydrochloride], for which the IC50 was 9 nM.
Regarding `Cc1cc(-c2cccc(C(F)(F)F)c2)cc2c(=O)n(CC(=O)C[C@H]3NCCC[C@@H]3O)cnc12` [Example 20, 3-{3-[(2R,3S)-3-Hydroxypiperidin-2-yl]-2-oxopropyl}-8-methyl-6-[3-(trifluoromethyl)phenyl]quinazolin-4(3H)-one hydrochloride], the IC50 amounted to 28 nM.
Regarding `Cc1cc(-c2cccnc2)cc2c(=O)n(CC(=O)C[C@H]3NCCC[C@@H]3O)cnc12` [Example 21, 3-{3-[(2R,3S)-3-Hydroxypiperidin-2-yl]-2-oxopropyl}-8-methyl-6-(pyridin-3-yl)quinazolin-4(3H)-one dihydrochloride], the 50% inhibitory concentration (IC50) came to 8 nM.
On to `Cc1cc(-c2ccc(F)c(F)c2)cc2c(=O)n(CC(=O)C[C@H]3NCCC[C@@H]3O)cnc12` [Example 22, 6-(3,4-Difluorophenyl)-3-{3-[(2R,3S)-3-hydroxypiperidin-2-yl]-2-oxopropyl}-8-methylquinazolin-4(3H)-one hydrochloride], for which the concentration for half-maximal inhibition (IC50) worked out at 15 nM.
To `Cc1cc(C2CCOCC2)cc2c(=O)n(CC(=O)C[C@H]3NCCC[C@@H]3O)cnc12` [Example 23, 3-{3-[(2R,3S)-3-Hydroxypiperidin-2-yl]-2-oxopropyl}-8-methyl-6-(tetrahydro-2H-pyran-4-yl)quinazolin-4(3H)-one hydrochloride] belongs 12 nM.
For `Cc1cc(N2CCCC2)cc2c(=O)n(CC(=O)C[C@H]3NCCC[C@@H]3O)cnc12` [Example 24, 3-{3-[(2R,3S)-3-Hydroxypiperidin-2-yl]-2-oxopropyl}-8-methyl-6-(pyrrolidin-1-yl)quinazolin-4(3H)-one dihydrochloride], the concentration for half-maximal inhibition (IC50) was 14 nM.
As to `O=C(C[C@H]1NCCC[C@@H]1O)Cn1cnc2cccc(C(F)(F)F)c2c1=O` [Example 25, 3-{3-[(2R,3S)-3-Hydroxypiperidin-2-yl]-2-oxopropyl}-5-(trifluoromethyl)quinazolin-4(3H)-one hydrochloride], the 50% inhibitory concentration (IC50) turned out to be 10 nM.
To `O=C(C[C@H]1NCCC[C@@H]1O)Cn1cnc2cccc(-c3cccc(C(F)(F)F)c3)c2c1=O` [Example 26, 3-{3-[(2R,3S)-3-Hydroxypiperidin-2-yl]-2-oxopropyl}-5-[3-(trifluoromethyl)phenyl]quinazolin-4(3H)-one hydrochloride] belongs 13 nM.

The IC50 is the concentration at which inhibition is half-maximal.
